Test results taken from article PMC6522510 (Nature Communications, 2019).
Counter-ions that a name gives are not always drawn. Like-named read-outs stand apart in the source and are kept apart here.

What was measured:
Design in all cases: species or system AML cell lines (8); Primary HTS, single concentration about 10 uM, Cell Titer Glo viability; log10 luminescence, per cent inhibition relative to cycloheximide control
Conditions in all cases: 72 h, relative to cycloheximide control, log10 luminescence, inhibitor
MV4-11 = system: MV4-11
CHRF288-11 = system: CHRF288-11
ML-2 = system: ML-2
U937 = system: U937
CMK = system: CMK
M07e = system: M07e
CMS = system: CMS
MOLM-13 = system: MOLM-13

| Compound | MV4-11 %inh (MV4-11; MV4-11 %inh, 10 µM) | CHRF288-11 %inh (CHRF288-11; CHRF288-11 %inh, 10 µM) | ML-2 %inh (ML-2; ML-2 %inh, 10 µM) | U937 %inh (U937; U937 %inh, 10 µM) | CMK %inh (CMK; CMK %inh, 10 µM) | M07e %inh (M07e; M07e %inh, 10 µM) | CMS %inh (CMS; CMS %inh, 10 µM) | MOLM-13 %inh (MOLM-13; MOLM-13 %inh, 10 µM) | MV4-11 %inh (MV4-11) | CHRF288-11 %inh (CHRF288-11) | ML-2 %inh (ML-2) | U937 %inh (U937) | CMK %inh (CMK) | M07e %inh (M07e) | CMS %inh (CMS) | MOLM-13 %inh (MOLM-13) |
| --- | --- | --- | --- | --- | --- | --- | --- | --- | --- | --- | --- | --- | --- | --- | --- | --- |
| CN(CCCCCCCCCCN(C)C(=O)Oc1cccc([N+](C)(C)C)c1)C(=O)Oc1cccc([N+](C)(C)C)c1 [SJ000287334-3, DEMECARIUM BROMIDE] | 33.39% | -4.258% | 2.323% | 32.99% | 4.147% | 11.04% | 4.988% | 13.7% | – | – | – | – | – | – | – | – |
| CNCC(O)c1ccc(OC(=O)C(C)(C)C)c(OC(=O)C(C)(C)C)c1 (centres unmarked) [SJ000287343-2, DIPIVEFRIN HYDROCHLORIDE] | – | – | – | – | – | – | – | – | 8.373% | 9.226% | 3.768% | 7.06% | -4.432% | 1.591% | -0.6385% | 33.32% |
| COCCCC/C(=N\OCCN)c1ccc(C(F)(F)F)cc1 [SJ000287487-5, FLUVOXAMINE MALEATE] | – | – | – | – | – | – | – | – | 0.9693% | 7.313% | 4.445% | 7.709% | -1.719% | 1.409% | -2.805% | 5.945% |
| COC(=O)C1=C(C)NC(C)=C(C(=O)OC(C)C)C1c1cccc2nonc12 (centres unmarked) [SJ000287510-2, ISRADIPINE] | – | – | – | – | – | – | – | – | 2.426% | 8.592% | -1.199% | 3.366% | -2.127% | 0.2973% | -2.562% | 6.188% |
| Cc1cccc(C)c1NC(=O)C(C)N (centres unmarked) [SJ000287515-4, TOCAINIDE HYDROCHLORIDE] | – | – | – | – | – | – | – | – | -0.903% | -1.466% | 2.731% | -0.5289% | -3.02% | 1.522% | -0.9728% | 2.63% |
| CCOc1cc(CC(=O)N[C@@H](CC(C)C)c2ccccc2N2CCCCC2)ccc1C(=O)O [SJ000287528-2, REPAGLINIDE] | 0.6192% | 3.798% | 3.177% | -2.093% | -2.471% | 3.133% | 0.05176% | -0.4831% | – | – | – | – | – | – | – | – |
| CCOc1cc(CC(=O)N[C@@H](CC(C)C)c2ccccc2N2CCCCC2)ccc1C(=O)O [SJ000287528-3, REPAGLINIDE] | -2.004% | 0.4521% | -0.6814% | 0.8964% | -1.863% | 1.002% | -3.811% | 1.863% | – | – | – | – | – | – | – | – |
| CCN[C@H]1C[C@H](C)S(=O)(=O)c2sc(S(N)(=O)=O)cc21 [SJ000287570-2, DORZOLAMIDE HYDROCHLORIDE] | – | – | – | – | – | – | – | – | -1.46% | -4.447% | -0.8167% | 2.321% | 0.1634% | -0.4811% | -2.24% | 5.665% |
| NS(=O)(=O)c1cc2c(cc1Cl)NC(C1CC3C=CC1C3)NS2(=O)=O (centres unmarked) [SJ000287770-4, CYCLOTHIAZIDE] | – | – | – | – | – | – | – | – | 2.178% | -0.8826% | 0.8137% | 3.095% | 4.526% | -1.741% | 2.052% | 4.774% |
| CCOC(=O)c1ncn2c1CN(C)C(=O)c1cc(F)ccc1-2 [SJ000287880-4, FLUMAZENIL] | – | – | – | – | – | – | – | – | 0.7722% | 1.517% | -1.521% | 0.9807% | -1.15% | 1.865% | 5.754% | -0.5944% |
